From US10780067B2, “Endoxifen for local transdermal therapy to the breast” (Northwestern University, priority 2016, dated 2020)

Key:
SHBG = experiment: Plasma SHBG ELISA, presurgical trial; assay type: in vivo, human; settings: mean ± SD
Protocol: (§1) Plasma samples collected with anticoagulant K3-EDTA were used for human IGF-1 and SHBG assays, and coagulation protein assays (factor VIII, factor IX, von Willebrand factor, and protein S)[23]. The human IGF-1 and SHBG assays were performed with Quantikine Enzyme-linked immunosorbent assay (ELISA) Kits (R&D Systems, Cat # DG100 for IGF-1, and Cat # DSHBGO for SHBG assay). The lower limit of detection was 56 pg/ml, and 5 pmol/L; % CV values were 4.3 and 5.6 for IGF-1, and SHBG assay, respectively. Factor VIII, and factor IX were determined with VisuLize™ antigen ELISA kits (Affinity Biologicals Inc.). von Willebrand factor was measured with immune-turbidimetric assay (Diagnostica Stago Inc. Cat #00518) by STAR analyzer, and total protein S was assayed with an ELISA kit (REAADSR Inc.)

DCIS lesions = experiment: Ki-67 labeling index by immunohistochemistry, phase II presurgical trial of 4-OHT gel vs oral tamoxifen; assay type: in vivo, human; settings: for Ki-67 baseline: Ki-67 LI of DCIS lesions before treatment
From the text: Women at risk for thromboembolic disease were excluded, as were those with a history of exogenous hormone use within the past month, and tamoxifen or raloxifene use within the past two years. Randomization was stratified by menopausal status, and enrollment site. Initially, the FDA required exclusions for grade 3 and comedo-type DCIS, mammographic DCIS size of >5 cm, and palpable lesions; these were removed following enrollment of nine subjects in the first year.
All participants provided informed consent. Baseline assessments included a history and physical, explanation of gel application, completion of the Breast Cancer Prevention Trial Eight Symptom Scale (BESS) questionnaire, collection of a venous blood sample, and collection of nipple aspirate fluid (NAF) from NAF yielders. […] Treatment began within 5 days post-randomization and ended on the day prior to surgical resection. Participants were instructed to apply the gel to the entire skin envelope of each breast each morning, after a shower. Duration of therapy was 6-10 weeks. Compliance was assessed through participant diaries, counts of returned pills and of returned gel canisters. Participants who took at least 80% of the prescribed dose were considered compliant.
(§2) Assessments similar to those performed at baseline were repeated on the day prior to, or on the morning of surgery. During surgery, breast adipose tissue from the surgical sample was snap frozen and stored at −80° C. for measurement of tamoxifen and metabolites. The samples were obtained from a location adjacent to the DCIS lesion to provide uniformity between participants undergoing breast conservation and mastectomy. The paraffin block of the core and excision samples were acquired by the recruiting institution and 10 sections from each specimen were submitted to the NU Pathology Core Facility. The sections were cut in batches (with pre- and post-treatment samples in the same batch), shipped cold, and processed for immunohistochemistry within four weeks.
(§3) Secondary endpoints were 1) to compare concentrations of tamoxifen and its metabolites [4-OHT, endoxifen, N-desmethyl tamoxifen (NDT)] in breast tissue, plasma and NAF obtained on the day of surgery; 2) to assess changes in known tamoxifenmodulated pathways in the breast (COX-2 and maspin protein expression, [19,20]) and plasma (SHBG, IGF-1 [14]). Side effect endpoints were 1) the incidence of hot flashes at baseline and before surgery; 2) changes in coagulation related proteins in women on the gel and the oral arms from baseline to immediately before surgery.
(§4) Immunohistochemical (IHC) assessment of these markers was performed on paraffin embedded sections of the core and excision specimens, using standard IHC techniques and MCF7, HCT116 and H292 cells as controls. For maspin we used primary mouse monoclonal antibody (Clone-G167-70,BD Pharmingen, San Jose, Calif.), dilution 1:200; for COX-2, primary mouse monoclonal antibody (Clone-CX-294, Dako, Denmark), dilution 1:100-; and for Ki67, primary mouse monoclonal antibody (Clone-MIB-1, Dako, Denmark), dilution 1:100-antigen. Dako Envision Plus system HRP labeled polymer for 20 min at 37° C. was used as the detection system. Scoring was performed on DCIS lesions only, with manual counting of positively stained DCIS cells. The Ki67 LI was assessed on an average of 300 DCIS cells at 40× magnification. The H score system (Score range: 0-300) was used for COX-2 and maspin markers by a single observer who was blinded to treatment status, with random verification of 20% of slides by a pathologist (PK).

[1] = Study 1: oral tamoxifen vs transdermal 4-OHT and endoxifen gel, mammary and plasma concentrations; settings: for concentration at 6 weeks: athymic nude (Hsd:RHFoxn1^rnu/rnu), rat, oral, 3 mg/kg/day
Protocol: (Z) tamoxifen was prepared as 3 mg/mL in sesame oil. For transdermal gel formulations, 4-OHT (E:Z=50:50) (1 mg/mL), (Z) endoxifen (1 mg/mL), and telapristone (1.5 mg/mL) were prepared in 60% (v/v) ethanol-phosphate buffer containing 0.5% (v/v) oleic acid [13] with 1.5% (w/v) Klucel hydroxypropyl cellulose.
Athymic nude rats (Hsd:RHFoxn1^rnu/rnu, Harlan Laboratories, Inc.) were provided with standard laboratory food and water ad libitum. […] In the gel groups, animals were anesthetized with isoflurane inhalation; the skin surface of axillary mammary glands was cleaned with alcohol swabs and air-dried; 0.1 mL drug gel was applied using a template with an exposed ellipse (π×R1×R2=π1 cm×0.6 cm) around the no. 2 nipple on each side and allowed to dry (total of 1, 0.5 mg/kg/day on each side); animals wore jackets fitted over the forelegs, to prevent loss of gel through grooming.
In both studies, rats were euthanized after 6 weeks of treatment for blood and tissue collections. The treated skin area was cleansed with alcohol prior to dissection. Blood samples were collected from the heart. We collected the whole mammary glands (1 axillary and 1 inguinal) per animal and measured their drug concentrations separately.
The concentrations of all the drugs used in rats and humans were determined by liquid chromatography-tandem mass spectroscopy (API 3000; AB SCIEX, Foster City, Calif., USA). […] The mobile phase was A: 0.1% formic acid in water (v/v) and B: 0.1% formic acid in acetonitrile (v/v). Details of sample processing and quantitation methods are described below. The lowest limits of quantification (LLOQ) were as follow: tamoxifen and N-desmethyl tamoxifen (NDT) (plasma 10 ng/mL; tissue 40 ng/g); 4-OHT and endoxifen (plasma 0.5 ng/mL; tissue 2 ng/g); telapristone and N-desmethyl telapristone (d-telapristone) (plasma 1 ng/mL; tissue 1.5 ng/g); and diclofenac (plasma 0.5 ng/mL; tissue 2 ng/g).
For preclinical studies, the summary statistics as medians and interquartile range (IQR) were reported by treatment group for each analyte obtained from plasma, axillary, and inguinal mammary glands. Concentration differences of each analyte between treatment groups and differences between mammary glands within each treatment group were assessed via the Wilcoxon rank-sum test, and the Wilcoxon signed rank-sum test, respectively.
(Z) tamoxifen and metabolites [(Z) NDT, (E) 4-OHT, and (Z) 4-OHT, (Z) endoxifen] were determined using LC-MS/MS (API 3000; AB SCIEX, Foster City, Calif.). A 100 μL aliquot of plasma was mixed with 200 μL of acetonitrile containing 1 ng each of the deuterated analogs of the analytes (TRC, Toronto, Canada). […]

IGF-1 = experiment: Plasma IGF-1 ELISA, presurgical trial; assay type: in vivo, human; settings: mean ± SD
Protocol: as §1

[2] = oral-T vs 4-OHT gel 2 mg daily, 2-3 weeks; cited from earlier work
factor IX = experiment: Plasma factor IX antigen ELISA, presurgical trial; assay type: in vivo, human; settings: mean ± SD
Protocol: as §1

MCF7 xenograft = settings: simulation using human PK; cited from earlier work
factor VIII = experiment: Plasma factor VIII antigen ELISA, presurgical trial; assay type: in vivo, human; settings: mean ± SD
Protocol: as §1

COX-2 = COX-2 expression (H score) by immunohistochemistry, presurgical trial; assay type: in vivo, human; settings: mean ± SD
Protocol: as §2, §3
as §4, with “Scoring was performed on DCIS lesions only, with manual counting of positively stained DCIS cells.” left out, “The H score system (Score range: 0-300) was used for COX-2 and maspin markers by a single observer who was blinded to treatment status, with random verification of 20% of slides by a pathologist (PK).” left out

total protein S = experiment: Plasma total protein S ELISA, presurgical trial; assay type: in vivo, human; settings: mean ± SD
Protocol: as §1

von Willebrand factor = experiment: Plasma von Willebrand factor immuno-turbidimetric assay, presurgical trial; assay type: in vivo, human; settings: mean ± SD
Protocol: as §1

[3] = 28 days; cited from earlier work

## CC/C(=C(\c1ccccc1)c1ccc(OCCN(C)C)cc1)c1ccccc1 [Tamoxifen, (Z)-tamoxifen]
SHBG; plasma after 6-10 weeks
  SHBG post-treatment: 143.9 ± 69.0 ng/mL
SHBG; plasma before treatment
  SHBG baseline: 98.4 ± 45.0 ng/mL
SHBG; plasma
  SHBG Changes from baseline: 45.5 ± 40.2 ng/mL
DCIS lesions; Ki-67 LI of DCIS lesions after 6-10 weeks, mean ± SD
  Ki-67 post-treatment: 3.2 ± 2.3%
DCIS lesions; mean ± SD
  Ki-67 baseline: 8.3%
DCIS lesions; mean ± SD, listed as Oral-T
  Ki-67 baseline: 8.3 ± 5.2%
DCIS lesions; Ki-67 LI of DCIS lesions, 6-10 weeks, mean ± SD
  Ki-67 Changes from baseline: −5.1 ± 5.5%
DCIS lesions; decrease from baseline in DCIS lesions, 6-10 weeks
  mean reduction of Ki-67 LI post-therapy: 5.1%
DCIS lesions; relative decrease, DCIS lesions
  drop in Ki67-LI relative to baseline: 61%
[1]; axillary mammary gland
  concentration at 6 weeks: 44.2 ng/g
[1]; inguinal mammary gland
  concentration at 6 weeks: 69.6 ng/g
[1]; plasma
  concentration at 6 weeks: 8 ng/mL
[1]; rats, end of 6 week experiment
  deaths, weight loss, general health, skin irritation: no deaths, no weight loss, and no skin irritation
IGF-1; plasma after 6-10 weeks
  IGF-1 post-treatment: 50.3 ± 9.7 ng/mL
IGF-1; plasma before treatment
  IGF-1 baseline: 59.0 ± 11.4 ng/mL
IGF-1; plasma
  IGF-1 Changes from baseline: -8.7 ± 8.3 ng/mL
[2]
  median 4-OHT concentration in nontumor breast tissue (previous study): 2.0 ng/g
Factor IX; plasma after 6-10 weeks
  % Factor IX post-treatment: 87.0 ± 12.2%
Factor IX; plasma before treatment
  % Factor IX baseline: 86.6 ± 8.8%
Factor IX; plasma
  % Factor IX Changes from baseline: 0.4 ± 10.2%
MCF7 xenograft
  TGI at day 21, 20 mg/day oral: 63%
Factor VIII; plasma after 6-10 weeks
  % Factor VIII post-treatment: 168.7 ± 51.6%
Factor VIII; plasma before treatment
  % Factor VIII baseline: 157.1 ± 47.5%
Factor VIII; plasma
  % Factor VIII Changes from baseline: 11.6 ± 17.3%
COX-2; DCIS lesions after 6-10 weeks
  COX-2 post-treatment: 78.9 ± 63.5 H-score
COX-2; DCIS lesions before treatment
  COX-2 baseline: 67.2 ± 72.4 H-score
COX-2; DCIS lesions, 6-10 weeks
  COX-2 Changes from baseline: 11.7 ± 109.8 H-score
Total protein S; plasma after 6-10 weeks
  % Total Protein S post-treatment: 91.6 ± 12.2%
Total protein S; plasma before treatment
  % Total Protein S baseline: 94.3 ± 8.9%
Total protein S; plasma
  % Total Protein S Changes from baseline: −2.7 ± 9.3%
Von Willebrand factor; plasma after 6-10 weeks
  % vWF post-treatment: 218.6 ± 134.6%
Von Willebrand factor; plasma before treatment
  % vWF baseline: 167.4 ± 89.2%
Von Willebrand factor; plasma
  % vWF Changes from baseline: 51.2 ± 71.0%
[3]
  ENX concentration in serum, oral TAM 1 mg daily: 3 ng/mL
  ENX concentration in serum, oral TAM 5 mg daily: 9 ng/mL
  ENX concentration in serum, oral TAM 20 mg daily: 38 ng/mL
  ENX concentration in tumor tissue, oral TAM 1 mg daily: 31 ng/g
  ENX concentration in tumor tissue, oral TAM 5 mg daily: 80 ng/g
  ENX concentration in tumor tissue, oral TAM 20 mg daily: 340 ng/g
